In patent US20240415878A1, “Compositions and Methods for Modulating Mitochondrial Function” (Board of Regents, The University of Texas System, priority 2021, published 2024):

Assays:
WT hepatocytes [1] = test: Confocal BODIPY/TMRE imaging of lipid droplets and mitochondrial potential in hepatocytes; format: cell-based, murine; conditions: 50 μM, 48 hours
Method: (§1) CPACC treatment enhances adipose browning and lowers whole body weight. Given the potent mMg^2+ uptake inhibiting properties and low toxicity of CPACC, we hypothesized that CPACC could mimic Mrs2^−/− cellular phenotype. WT hepatocytes isolated from over 12 months old mice were treated with 50 μM CPACC for 48 hours. Control and CPACC treated hepatocytes were stained with BODIPY and TMRE for intracellular tracing using confocal imaging. […] Next it was determined if CPACC treatment affects the mitochondrial oxygen consumption rate. Freshly isolated WT hepatocytes were treated with 5-25 μM concentrations of CPACC for 16 hours before measurement of oxygen consumption rate. […] Since it was observed an enhancement of basal OCR in CPACC treated hepatocytes, the extracellular acidification rate was measured in control and CPACC treated hepatocytes and found it to be higher in the CPACC condition indicating higher glycolytic activity (FIG. 11G). […]
Confocal microscopic examination of cellular lipid localization and maintenance. […] Leica Application Suite X was used to quantify lipid-mitochondrial colocalization using line scan analysis followed by smooth curve fitting. […] The lipid droplet sizes and mitochondrial membrane potential were quantified using both Leica Application Suite X and ImageJ. All data was analyzed using GraphPad Prism v8.

HIF-1α = conditions: cell culture
Description: HIF-1α is stabilized in Mrs2−/− mice. To examine the intrinsic role of Mrs2, Mrs2^−/− mice were challenged to LPS-induced inflammatory response. It was noticed that there was a barely detectable HIF-1α stabilization in control but a significant HIF-1α protein accumulation following LPS stimulation in Mrs2^−/− hepatocytes (Daw et al., 2020). […] It was envisioned that loss of Mrs2 in hepatocyte mitochondria might control metabolite fluxes that regulates HIF-1α stability under normoxic conditions. HIF-1α is the most commonly studied transcription factor that responds to oxygen tension and its stabilization controls numerous metabolic cascades, including glycolysis and oxidative phosphorylation (Kaelin and Ratcliffe, 2008; Lum et al., 2007; Semenza, 2013). A targeted metabolite screen was conducted to identify whether these metabolites potentially altered in Mrs2^−/− control HIF-1α stabilization. WT hepatocytes were treated with the PHD inhibitor FG-4952 for 6 hours in the presence or absence of metabolites (Buckley et al., 2012). […] Next it was explored whether citric acid mediated HIF-1α destabilization is a hydroxylation dependent mechanism by reconstitution of hydroxylation-dead mutant HIF-1α in COS-7 cells (Yan et al., 2007). […] Next tested the potency of citric acid and sodium citrate was tested. Hepatocytes isolated from WT or Mrs2^−/− mice were treated for 6 hours. HIF-1α stabilization was less affected by di- or tri-sodium citrate than by citric acid (FIG. 9G). […] The citric acid-mediated HIF-1α destabilization was intact in multiple chemical modalities (FIG. 9H) and the intracellular chelation of Mg^2+ ions suppressed FG-4952-induced HIF-1α stabilization (FIG. 9I). […] Furthermore, COS-7 cells were more sensitive to the HIF-1α stabilizing effect compared to hepatocytes. […] Next HIF-1α abundance was tested in liver tissues harvested from dietary cohorts. HIF-1α protein expression/stabilization was prominent in both Mrs2^−/− and Mrs2^−/− WD, whereas HIF-1α protein was nearly completely absent in WT WD (FIG. 9M). This supports the elevation of HIF-1α protein level as a key mechanism driving transcription changes in Mrs2^−/− WD livers.
Immunoblotting. Crushed tissues were homogenized in lysis buffer (ThermoFisher) on ice for one minute (20-30 strokes) using an automatic Dounce homogenizer set to 2000 RPM. Whole cell lysate was prepared in lysis buffer (Abcam) using 3 sets of 3-second sonication (power level 3) intervals on ice. Protein concentration was estimated using Pierce BCA assay kit and samples were prepared and heated for 90° C. for 5 minutes. Equal amounts of protein were loaded and separated on 4%-12% Bis-Tris polyacrylamide gel (Thermo Fisher Scientific), transferred to a PVDF membrane, blocked for 1-2 h using 5% fat free skim milk, washed and finally, probed with corresponding antibodies as specified below. Antibodies were from Cell Signaling Technology (HIF-1α and Hydroxy HIF-1α dilution 1:3000, MCU dilution 1.5000, MICU1 dilution 1:3000), Abcam Abcam (CPT-1a, CPT-2, OXPHOS cocktail dilution 1:3000), ZYMED Laboratories (β-actin; dilution 1:1,000), and Amersham (secondary antibodies conjugated with peroxidase). Development was done using X-ray film using a series of timed exposures and Image J was used for densitometric analysis on scanned film images.

WT hepatocytes [2] = test: Mitochondrial oxygen consumption rate and extracellular acidification rate (Seahorse); format: cell-based, murine
Method: as §1
Mitochondrial oxygen consumption rate. […] Oxygen consumption rate (OCR) was measured at 37° C. in an XF96 extracellular flux analyzer (Seahorse Bioscience, Agilent) calibrated using Seahorse XF Calibrant solution (Seahorse Bioscience, Agilent) in a CO2-free incubator overnight. […] Data was collected using Agilent Seahorse Wave 2.6.1 Desktop software and analyzed using GraphPad Prism version 8 (Irrinki et al., 2011; Tomar et al., 2016).

In the case of `[NH2][Co]([NH2])([NH2])([NH2])([NH2])[Cl]` [CPACC, chloropentaammine cobalt (III) chloride], the “effect on mitochondrial function (TMRE)” value (WT hepatocytes [1]) is reported as “no negative effect”, the lipid droplet size (WT hepatocytes [1]; hepatocytes from over 12 months old mice) is reported as “marked reduction of lipid droplet size” and the “HIF-1α stabilization by the compound” value (HIF-1α) is reported as “partial stabilization”. The “maximal OCR” value (WT hepatocytes [2]; 5-25 μM, 16 hours) was “without a significant effect” and the extracellular acidification rate (WT hepatocytes [2]; treated versus control hepatocytes) was “higher”.
